Test results taken from EP0471612B1, “New steroids having an amide substituted group in the 11-beta position, their preparation, their use as medicines and pharmaceutical composition thereof” (ROUSSEL UCLAF, priority 1990, dated 1992).
Read-outs that look alike come from different tables or passages of the source.

Legend:
[1] = target: T1, récepteur estrogène de l'utérus de souris (Mus musculus, UniProt P19785); assay: Relative binding affinity (ARL) for the estrogen receptor, mouse uterus cytosol, displacement of tritiated estradiol; settings: ARL = 100 (CH)/(CX), estradiol = 100, head prints 0°C; for Récepteurs Oestrogène Temps d'incubation à 0°C 5H (affinité relative de liaison, ARL): incubation 5H (second time); for Récepteurs Oestrogène Temps d'incubation à 0°C 2H (affinité relative de liaison, ARL): incubation 2H
T1 construct: les utérus sont prélevés puis homogénéisés a 0°C; from tissue; host or cells: uterus of immature female mice (18-21 days), cytosol (105 000 g supernatant)
T1 sequence (P19785 1-599): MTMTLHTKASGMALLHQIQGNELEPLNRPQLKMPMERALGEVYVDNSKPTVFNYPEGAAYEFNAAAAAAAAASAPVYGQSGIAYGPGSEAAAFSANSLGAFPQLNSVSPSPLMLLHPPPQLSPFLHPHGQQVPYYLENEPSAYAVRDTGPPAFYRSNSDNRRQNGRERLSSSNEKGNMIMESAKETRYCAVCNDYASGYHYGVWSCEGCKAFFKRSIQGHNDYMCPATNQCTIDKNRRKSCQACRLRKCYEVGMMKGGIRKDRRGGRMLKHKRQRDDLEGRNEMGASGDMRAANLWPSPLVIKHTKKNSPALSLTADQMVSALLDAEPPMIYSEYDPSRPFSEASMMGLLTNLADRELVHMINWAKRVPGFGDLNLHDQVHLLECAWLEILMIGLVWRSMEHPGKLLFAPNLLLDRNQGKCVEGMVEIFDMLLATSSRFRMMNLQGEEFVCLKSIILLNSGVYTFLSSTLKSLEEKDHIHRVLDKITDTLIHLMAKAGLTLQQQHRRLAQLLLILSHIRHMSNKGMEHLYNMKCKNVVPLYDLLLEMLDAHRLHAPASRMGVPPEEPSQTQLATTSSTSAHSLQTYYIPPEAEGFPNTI
Experimental: Des souris femelles impubères âgées de 18 a 21 jours sont sacrifiées, les utérus sont prélevés puis homogénéisés a 0°C à l'aide d'un Potter teflon-verre dans une solution tamponnée TS (Tris 10 mM, saccharose 0,25 M, HCl pH 7,4 (1 g de tissu pour 25 ml de TS). L'homogénat est ensuite ultracentrifugé (105 000 g x 90 mn) à 0°C. Des aliquotes du surnageant ainsi obtenu, sont incubées a 0°C ou a 25°C pendant un temps (t) avec une concentration constante (T) d'estradiol tritié en présence de concentrations croissantes (0 - 1000.10^-9 M) soit d'estradiol froid, soit du produit froid a tester. La concentration d'estradiol tritié lié (B) est ensuite mesurée dans chaque incubat par la technique d'adsorption au charbon-dextran.
Le calcul de l'affinité relative de liaison (ARL) est identique pour tous les récepteurs.
On trace les 2 courbes suivantes : le pourcentage de l'hormone tritiée liée (B)/(T) [formula] en fonction du logarithme de la concentration de l'hormone de référence froide et (B)/(T) [formula] en fonction du logarithme de la concentration du produit froid testé.
On détermine la droite d'équation I50 = ((B)/(T)max +(B)/(T)min)/2. [formula] (B)/(T) [formula] max = Pourcentage de l'hormone tritiée liée pour une incubation de cette hormone tritiée à la concentration (T). (B)/(T) [formula] min = Pourcentage de l'hormone tritiée liée pour une incubation de cette hormone tritiée à la concentration (T) en présence d'un grand excès d'hormone froide (2500.10^-9M).
Les intersections de la droit I50 et des courbes permettent d'évaluer les concentrations de l'hormone de référence froide (CH) et du produit froid testé (CX) qui inhibent de 50 % la liaison de l'hormone tritiée sur le récepteur.
L'affinité relative de liaison (ARL) du produit testé est déterminée par l'équation ARL = 100((CH))/((CX)). [formula]

[2] = test system: cellules tumorales mammaires MCF-7; assay: Anti-proliferative activity on growth of MCF-7 mammary tumour cells (DNA assay with DABA); assay type: cell-based; settings: Homo sapiens, MCF7, 144 h, read-out: CI50 (concentration qui inhibe de 50 % la croissance des cellules MCF7)
Experimental: Les lignées MCF-7 sont maintenues en culture en milieu SVF(1) à 37°C en atmosphère humide contenant 5 % CO2. Les cellules à subconfluence sont récoltées par trypsination (trypsine 0,05 %, EDTA 0,02 %) puis rincées par centrifugation douce. Un échantillon des cellules en suspension est compté sur cellule de Malassez.
Les cellules resuspendues dans le milieu SVF sont ensemencées à raison de 30.000 cellules par puits dans des plaques multipuits (24 puits de 2,5 cm^2). Vingt quatre heures après l'ensemencement (JO), le produit à tester est ajouté au milieu en solution éthanolique (concentration finale en éthanol : 0,1 %), à la concentration de 10^-12 à 10^-6M, les puits contrôles recevant la même concentration en éthanol. Les milieux sont renouvelés toutes les 48 heures. En fin d'expérience (J6), le milieu est aspiré et les cellules sont immédiatement fixées par 150 microlitres de méthanol afin de doser l'ADN.
L'activité anti-proliférative des produits est évaluée par leur capacité à inhiber l'augmentation d'ADN.
L'ADN est dosé par une méthode fluorimétrique utilisant le DABA (Acide 3,5 diaminobenzoïque) (2) : 150 microlitres de DABA sont ajoutés dans chaque puits; les plaques sont alors incubées 45 mn à 56°C, puis 2 ml d'HCl 1N sont ajoutés. La fluorescence est mesurée à l'aide d'un fluorimètre (longueur d'onde excitatrice : 408 nm, longueur d'onde d'émission : 510 nm).
La quantité d'ADN par puits est évaluée par rapport à une gamme étalon obtenue en traitant dans les mêmes conditions un standard d'ADN de thymus de veau.
La concentration en nm qui inhibe de 50 % la croissance des cellules MCF7 (CI50) a été déterminée de la manière indiquée ci-dessus : […]

[3] = MCF-7, product 10^-12 to 10^-6M, 6 days (J6), DNA measured

Compound	Récepteurs Oestrogène Temps d'incubation à 0°C 5H (affinité relative de liaison, ARL) [1]	IC50 [2, 3] [pM]	Récepteurs Oestrogène Temps d'incubation à 0°C 2H (affinité relative de liaison, ARL) [1]	Récepteurs Oestrogène Temps d'incubation à 0°C 5H (affinité relative de liaison, ARL) ([1]; listed as exemple 14)	IC50 [2] [pM]
CCCCN(C)C(=O)CSCCCCCc1ccc([C@H]2C[C@]3(C)[C@@H](O)CC[C@H]3[C@@H]3CCc4cc(O)ccc4[C@H]32)cc1 [Exemple 9, N-butyl-2-((5-(4-(3,17béta-dihydroxy-estra-1,3,5(10)-trien-11béta-yl)phényl)pentyl)thio)-N-méthyl-acétamide]	11,7	9	–	–	–
CCCCN(C)C(=S)CCCCCCCOc1ccc([C@H]2C[C@]3(C)[C@@H](O)CC[C@H]3[C@@H]3CCc4cc(O)ccc4[C@H]32)cc1 [Exemple 2, N-butyl-8-(4-(3,17béta-dihydroxy-estra-1,3,5(10)-trien-11béta-yl)phénoxy)-N-méthyl-octanethioamide]	16	35	–	–	–
CCCCN(C)C(=O)COCCCCCCOc1ccc([C@H]2C[C@]3(C)[C@@H](O)CC[C@H]3[C@@H]3CCc4cc(O)ccc4[C@H]32)cc1 [Exemple 6]	29	7	3,3	–	–
C#C[C@]1(O)CC[C@H]2[C@@H]3CCc4cc(O)ccc4[C@H]3[C@@H](CCCCCCCCOCC(=O)N(C)C(C)C)C[C@@]21C [Exemple 14, 2-((8-(3,17béta-dihydroxy19-nor-17alpha-pregna-1,3,5(10)-trien-20-yn-11béta-yl)octyl)oxy)-N-méthyl-N-(1-méthyléthyl)-acétamide]	47	15	2,8	affinité marquée	–
CN(CC(F)(F)C(F)(F)C(F)(F)F)C(=O)CCCCCCCOc1ccc([C@H]2C[C@]3(C)[C@@H](O)CC[C@H]3[C@@H]3CCc4cc(O)ccc4[C@H]32)cc1 [Exemple 5, 8-(4-(3,17béta-dihydroxy-estra-1,3,5(10)-trien-11béta-yl)phénoxy)-N-(2,2,3,3,4,4,4-heptafluorobutyl)-N-méthyl-octanamide]	23	–	0	–	20
CCCCN(C)C(=S)COCCCCCOc1ccc([C@H]2C[C@]3(C)[C@@H](O)CC[C@H]3[C@@H]3CCc4cc(O)ccc4[C@H]32)cc1 [Exemple 1]	20	30	–	–	–
CCCCN(C)C(=S)CSCCCCCOc1ccc([C@H]2C[C@]3(C)[C@@H](O)CC[C@H]3[C@@H]3CCc4cc(O)ccc4[C@H]32)cc1 [Exemple 18]	16	–	–	–	–
